# Data: patent US20100041646A1, “Phenylene-Bis-Oxazolidine Derivatives and Their Use as Anticoagulants” (BAYER HEALTHCARE AG, priority 2005, published 2010)
# Target: human factor Xa (FXa) (Homo sapiens, UniProt P00742)
# Assay: Determination of the factor Xa inhibition (chromogenic substrate)
# Type: biochemical
# Settings: human FXa 0.5 nmol/l, 150 μmol/l Pefachrome FXa, 25° C., extinction at 405 nm
# Method: The enzymatic inhibition of human factor Xa (FXa) is measured using the conversion of a chromogenic substrate specific for FXa. Factor Xa cleaves p-nitroaniline from the chromogenic substrate. The determinations are carried out in microtiter plates as follows:
# The test substances, in various concentrations, are dissolved in DMSO and incubated for 10 minutes at 25° C. with human FXa (0.5 nmol/l dissolved in 50 mmol/l of Tris buffer [C,C,C-tris(hydroxymethyl)aminomethane], 150 mmol/l of NaCl, 0.1% BSA [bovine serum albumin], pH 20=8.3). Pure DMSO is used as control. The chromogenic substrate (150 μmol/l Pefachrome® FXa from Pentapharm) is then added. After an incubation time of 20 minutes at 25° C., the extinction at 405 nm is determined.
# human factor Xa (FXa), sequence (P00742 235-488 limits assumed): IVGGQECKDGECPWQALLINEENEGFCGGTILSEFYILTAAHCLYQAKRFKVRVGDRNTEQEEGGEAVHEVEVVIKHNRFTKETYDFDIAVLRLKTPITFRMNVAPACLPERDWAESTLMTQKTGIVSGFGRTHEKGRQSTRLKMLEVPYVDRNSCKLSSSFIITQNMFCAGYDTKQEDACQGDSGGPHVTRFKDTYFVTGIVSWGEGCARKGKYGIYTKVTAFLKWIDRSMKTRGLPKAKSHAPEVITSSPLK
# human factor Xa (FXa), sequence (P00742 41-179 partner limits assumed): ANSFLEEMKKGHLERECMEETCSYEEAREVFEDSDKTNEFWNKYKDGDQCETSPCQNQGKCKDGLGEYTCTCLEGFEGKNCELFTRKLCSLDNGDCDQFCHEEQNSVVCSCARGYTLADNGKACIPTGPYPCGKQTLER
row,IC50 [nM],Structure (SMILES)
1,3.1,"N=C1OCCCN1c1ccc(N2C[C@H](CNC(=O)c3ccc(Cl)s3)OC2=O)cc1 [Example 5, 5-Chloro-N-({(5S)-3-[4-(2-imino-1,3-oxazinan-3-yl)phenyl]-2-oxo-1,3-oxazolidin-5-yl}methyl)thiophene-2-carboxamide methanesulfonate]"
2,1.1,"N=C1OCCN1c1ccc(N2C[C@H](CNC(=O)c3ccc(Cl)s3)OC2=O)cc1 [Example 1, 5-Chloro-N-({(5S)-3-[4-(2-imino-1,3-oxazolidin-3-yl)phenyl]-2-oxo-1,3-oxazolidin-5-yl}methyl)thiophene-2-carboxamide]"
3,16,"N#CN=C1OCCN1c1ccc(N2C[C@H](CNC(=O)c3ccc(Cl)s3)OC2=O)cc1 [Example 6, 5-Chloro-N-[((5S)-3-{4-[2-(cyanoimino)-1,3-oxazolidin-3-yl]phenyl}-2-oxo-1,3-oxazolidin-5-yl)methyl]thiophene-2-carboxamide]"
